The source of these data is patent publication US20240182874A1, “NOVEL FAMILY OF DNA POLYMERASES ACCEPTING 2-AMINOADENINE AND REJECTING ADENINE IN THEIR SUBSTRATES” (THE EUROPEAN SYNDICATE OF SYNTHETIC SCIENTISTS AND …, priority 2021, published 2024).

Common to all, as to test: Single nucleotide extension assay, steady-state kinetics (Table 2)
Series [1] has as its system T1, Nc1nc(N)c2ncn([C@H]3C[C@H](O)[C@@H](COP(=O)(O)OP(=O)(O)OP(=O)(O)O)O3)c2n1.
T1 construct: 3'-exonuclease-disabled D85A
The series is classed as biochemical, Vibrio phage PhiVC8. Conditions: other: 37° C., pH7, 500 nM duplex X1648/X1649, average and standard deviation of three independent assays, pH 7.0. An excerpt:
(§1) DpoZ genes from each bacteriophage were also cloned in the P15A plasmid pVDM18 previously described (Pezo et al., Sci Rep. 3, 1359 (2013)). Exonuclease mutants were constructed by site directed mutagenesis of pVDM18 Pol constructs using X1379/X1380 oligonucleotides for Vibrio phage PhiVC8 DNA pol (D85A mutation), X1865/X1866 for Arthrobacter phage Wayne DNA pol (D146A mutation), X1990/X1991 for Acinetobacter phage SH-Ab-15497 (D74A mutation), X1867/X1868 for Gordonia phage Ghobes DNA pol (D109A mutation) and X1601/X1602 for Klenow fragment of E. coli DNA pol I (D101A mutation). Mutations were verified by full sequencing of the constructs. These mutants were also sub-cloned into the pGEN452 vector downstream a His6-tag for protein expression
(§2) Kinetic parameters were determined in a single nucleotide extension assay using DNA polymerase mutants devoid of 3′exonuclease activity, followed by denaturing polyacrylamide gel electrophoresis of the extended products essentially as described (O'Flaherty and Guengerich, Current Protocols in Nucleic Acid Chemistry. 59 (2014)). The fluorescent oligonucleotide X1648 was annealed to X1649 template. Duplex substrates were used at 500 nM concentration in reaction buffer (20 mM TrisHCl pH7, 200 mM NaCl, 2 mM DTT, 5 mM MgCl2), with different enzymes concentrations and various dNTPs concentrations. Reactions were performed at 37° C. for variable times in conditions to remain in the confines of the steady-state kinetic model e.g. remaining below 20% of product formation (Creighton et al., Methods in Enzymology (Elsevier, 1995; https://linkinghub.elsevier.com/retrieve/pii/0076687995620214), vol. 262, pp. 232-256).
(§3) • The Km affinity constant and the kcat turnover number of 3′-exonuclease-disabled and His-tagged versions of DpoZ polymerases from Vibrio phage PhiVC8 and Acinetobacter phage SH-Ab 15497 are shown in comparison with PolA polymerase (Klenow fragment) from E. coli. The average and standard deviation of three independent assays carried out under the same conditions are given for each experiment.

The test system of series [2] is T2, Nc1ncnc2c1ncn2[C@H]1C[C@H](O)[C@@H](COP(=O)(O)OP(=O)(O)OP(=O)(O)O)O1.
T2 construct: 3'-exonuclease-disabled D85A
It is filed as biochemical, Vibrio phage PhiVC8. Conditions: other: 37° C., pH7, 500 nM duplex X1648/X1649, average and standard deviation of three independent assays, pH 7.0.
Description: as §1, §2, §3

Series [3] has as its target T3, Acinetobacter phage SH-Ab 15497 DpoZ DNA polymerase (SEQ ID NO: 113), His-tagged, 3′-exonuclease-disabled mutant D74A (Acinetobacter phage SH-Ab 15497, UniProt A0A2H5BHJ5, D74A).
T3 construct: 3'-exonuclease-disabled D74A
T3 sequence (A0A2H5BHJ5 1-624 D74A): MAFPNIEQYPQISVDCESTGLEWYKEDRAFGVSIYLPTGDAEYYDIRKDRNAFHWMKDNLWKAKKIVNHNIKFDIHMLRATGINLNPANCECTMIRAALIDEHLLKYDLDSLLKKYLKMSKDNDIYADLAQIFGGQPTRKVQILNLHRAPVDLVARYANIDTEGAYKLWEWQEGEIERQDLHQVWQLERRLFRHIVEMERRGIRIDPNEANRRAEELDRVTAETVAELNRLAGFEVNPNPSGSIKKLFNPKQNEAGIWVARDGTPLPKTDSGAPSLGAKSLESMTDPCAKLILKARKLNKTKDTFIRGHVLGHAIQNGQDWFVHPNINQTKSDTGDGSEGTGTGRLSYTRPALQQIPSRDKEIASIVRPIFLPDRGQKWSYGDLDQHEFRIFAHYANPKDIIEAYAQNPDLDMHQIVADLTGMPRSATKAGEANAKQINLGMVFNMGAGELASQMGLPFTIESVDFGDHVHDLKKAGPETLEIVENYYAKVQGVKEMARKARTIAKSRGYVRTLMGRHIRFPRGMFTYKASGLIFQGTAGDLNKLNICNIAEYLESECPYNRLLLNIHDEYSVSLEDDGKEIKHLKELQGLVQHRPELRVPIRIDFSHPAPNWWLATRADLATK
The series is classed as biochemical. Conditions: for Efficiency: catalytic efficiency, average and standard deviation of three independent assays.
Description: as §1, §2, §3

The target in series [4] is T4, E. coli PolA polymerase (Klenow fragment of E. coli DNA pol I, SEQ ID NO: 234), His-tagged, 3′-exonuclease-disabled mutant D101A (Escherichia coli, UniProt P00582, D424A).
T4 construct: 3'-exonuclease-disabled
It is filed as biochemical. Conditions: for Efficiency: catalytic efficiency, average and standard deviation of three independent assays.
Description: as §1, §2, §3

Series [5] concerns the target T5, Vibrio phage PhiVC8 DpoZ DNA polymerase (SEQ ID NO: 112), His-tagged, 3′-exonuclease-disabled mutant D85A (Vibrio phage phiVC8, UniProt G3FFN8, D85A).
T5 construct: 3'-exonuclease-disabled D85A
T5 sequence (G3FFN8 1-633 D85A): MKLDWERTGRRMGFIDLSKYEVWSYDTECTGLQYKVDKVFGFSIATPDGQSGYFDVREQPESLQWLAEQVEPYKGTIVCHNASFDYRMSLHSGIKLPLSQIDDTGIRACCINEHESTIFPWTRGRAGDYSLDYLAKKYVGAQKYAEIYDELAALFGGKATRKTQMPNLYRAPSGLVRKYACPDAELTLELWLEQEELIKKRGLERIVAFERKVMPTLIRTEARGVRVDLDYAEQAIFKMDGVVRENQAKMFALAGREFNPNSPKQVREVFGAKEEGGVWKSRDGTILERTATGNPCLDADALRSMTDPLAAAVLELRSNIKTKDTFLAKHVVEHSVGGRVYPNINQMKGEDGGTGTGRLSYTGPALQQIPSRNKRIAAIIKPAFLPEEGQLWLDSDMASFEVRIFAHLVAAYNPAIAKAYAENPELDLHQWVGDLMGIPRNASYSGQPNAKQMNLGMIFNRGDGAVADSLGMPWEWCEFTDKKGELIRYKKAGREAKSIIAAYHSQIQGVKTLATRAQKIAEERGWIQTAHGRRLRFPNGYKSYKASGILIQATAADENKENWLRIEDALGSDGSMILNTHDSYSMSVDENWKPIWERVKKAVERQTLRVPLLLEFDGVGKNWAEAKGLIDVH
The series is classed as biochemical. Conditions: for Efficiency: catalytic efficiency, average and standard deviation of three independent assays.
Description: as §1, §2, §3

The test system of series [6] is T6, Nc1nc(N)c2ncn([C@H]3C[C@H](O)[C@@H](COP(=O)(O)OP(=O)(O)OP(=O)(O)O)O3)c2n1.
T6 construct: 3'-exonuclease-disabled D74A
The series is classed as biochemical, Acinetobacter phage SH-Ab 15497. Conditions: other: 37° C., pH7, 500 nM duplex X1648/X1649, average and standard deviation of three independent assays, pH 7.0.
Description: as §1, §2, §3

The subject of series [7] is T7, Nc1ncnc2c1ncn2[C@H]1C[C@H](O)[C@@H](COP(=O)(O)OP(=O)(O)OP(=O)(O)O)O1.
T7 construct: 3'-exonuclease-disabled D74A
The series is classed as biochemical, Acinetobacter phage SH-Ab 15497. Conditions: other: 37° C., pH7, 500 nM duplex X1648/X1649, average and standard deviation of three independent assays, pH 7.0.
Description: as §1, §2, §3

T4 sequence (P00582 with tags, fused parts or gaps D424A): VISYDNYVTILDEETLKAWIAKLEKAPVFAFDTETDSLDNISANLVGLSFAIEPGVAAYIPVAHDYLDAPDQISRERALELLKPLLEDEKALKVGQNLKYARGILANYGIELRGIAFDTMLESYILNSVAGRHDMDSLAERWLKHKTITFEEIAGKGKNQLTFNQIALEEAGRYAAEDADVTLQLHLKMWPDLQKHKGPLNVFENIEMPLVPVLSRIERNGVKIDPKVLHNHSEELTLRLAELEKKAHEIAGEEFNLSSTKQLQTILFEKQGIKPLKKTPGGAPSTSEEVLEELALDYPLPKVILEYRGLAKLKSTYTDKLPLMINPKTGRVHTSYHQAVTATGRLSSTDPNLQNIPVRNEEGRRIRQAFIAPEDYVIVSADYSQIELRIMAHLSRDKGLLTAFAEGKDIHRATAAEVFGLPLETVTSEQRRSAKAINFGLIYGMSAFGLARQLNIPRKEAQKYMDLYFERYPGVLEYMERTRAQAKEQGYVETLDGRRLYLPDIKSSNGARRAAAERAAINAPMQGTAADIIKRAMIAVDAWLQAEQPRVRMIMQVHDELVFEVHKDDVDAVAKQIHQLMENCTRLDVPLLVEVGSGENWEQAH

With “Vibrio phage PhiVC8 DpoZ DNA polymerase (SEQ ID NO: 112), His-tagged, 3′-exonuclease-disabled mutant D85A (Vibrio phage phiVC8; D85A)”, in series [1], the Km stood at 100 ± 20 µM and the kcat was 0.42 ± 0.14 s⁻¹. In series [2], the Km stood at 4500 ± 1380 µM and the turnover number (kcat) amounted to 0.21 ± 0.05 s⁻¹.
In the case of `Nc1nc(N)c2ncn([C@H]3C[C@H](O)[C@@H](COP(=O)(O)OP(=O)(O)OP(=O)(O)O)O3)c2n1` [dZTP, 2-amino-2′-deoxyadenosine 5′-triphosphate], the figures for the “factor in catalytic efficiency with dZTP relative to dATP” value in series [3], in series [4] and in series [5] were 29 -fold, 0.5 -fold and 90 -fold, respectively. Further, the Efficiency in series [3] is 0.23 ± 0.06 mM⁻¹ s⁻¹; in series [4], 17.73 ± 4.96 mM⁻¹ s⁻¹; in series [5] it was 4.35 ± 1.56 mM⁻¹ s⁻¹. In addition, the “kcat^(Z)/kcat^(A)” value in series [3] (kcat dZTP / kcat dATP) is given as 1.81; in series [4] (kcat dZTP / kcat dATP), 0.68; in series [5] (kcat dZTP / kcat dATP) it was 2.00.
As to `Nc1ncnc2c1ncn2[C@H]1C[C@H](O)[C@@H](COP(=O)(O)OP(=O)(O)OP(=O)(O)O)O1` [dATP, deoxyadenosine 5′-triphosphate], the Efficiency in series [3] came out at 0.008 ± 0.001 mM⁻¹ s⁻¹; in series [4], 30.40 ± 5.82 mM⁻¹ s⁻¹; in series [5], 0.048 ± 0.017 mM⁻¹ s⁻¹.
On to “Acinetobacter phage SH-Ab 15497 DpoZ DNA polymerase (SEQ ID NO: 113), His-tagged, 3′-exonuclease-disabled mutant D74A (Acinetobacter phage SH-Ab 15497; D74A)”, for which the Michaelis-Menten constant (Km) in series [6] amounted to 1300 ± 360 µM; in series [7], 21400 ± 3400 µM. Further, the kcat in series [6] came out at 0.29 ± 0.07 s⁻¹; in series [7], 0.16 ± 0.01 s⁻¹.
